# Legend:
# [1] = molecular target: Neuronal acetylcholine receptor; alpha4/beta2 (Rattus norvegicus, UniProt P09483+P12390); assay: Inhibition of [3H]- cytisine binding to Nicotinic acetylcholine receptor alpha4-beta2 of rat cortical membranes; type: cell membranes, Membrane
# Mus musculus = species: Mus musculus; assay: Effective concentration showing antinociception activity was determined by tail flick test in mouse; type: functional, organism-based
# Sequence of Neuronal acetylcholine receptor; alpha4/beta2 (P09483 whole entry): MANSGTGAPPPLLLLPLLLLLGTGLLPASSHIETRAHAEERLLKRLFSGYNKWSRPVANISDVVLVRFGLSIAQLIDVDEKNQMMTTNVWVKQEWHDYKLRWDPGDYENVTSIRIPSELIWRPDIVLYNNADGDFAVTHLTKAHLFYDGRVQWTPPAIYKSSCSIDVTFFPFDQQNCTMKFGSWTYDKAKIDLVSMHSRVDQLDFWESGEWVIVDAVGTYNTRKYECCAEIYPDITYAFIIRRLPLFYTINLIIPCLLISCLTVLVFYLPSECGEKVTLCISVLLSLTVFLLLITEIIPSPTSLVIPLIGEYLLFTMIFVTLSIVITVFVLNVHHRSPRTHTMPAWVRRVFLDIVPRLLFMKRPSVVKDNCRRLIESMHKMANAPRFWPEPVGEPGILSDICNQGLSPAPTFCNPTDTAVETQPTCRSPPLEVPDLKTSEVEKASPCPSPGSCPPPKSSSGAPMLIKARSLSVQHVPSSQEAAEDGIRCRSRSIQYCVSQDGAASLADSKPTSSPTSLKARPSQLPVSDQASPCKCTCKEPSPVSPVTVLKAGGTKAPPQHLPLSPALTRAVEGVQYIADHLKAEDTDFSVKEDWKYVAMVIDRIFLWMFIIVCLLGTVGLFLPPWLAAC
# Sequence of Neuronal acetylcholine receptor; alpha4/beta2 (P12390 whole entry): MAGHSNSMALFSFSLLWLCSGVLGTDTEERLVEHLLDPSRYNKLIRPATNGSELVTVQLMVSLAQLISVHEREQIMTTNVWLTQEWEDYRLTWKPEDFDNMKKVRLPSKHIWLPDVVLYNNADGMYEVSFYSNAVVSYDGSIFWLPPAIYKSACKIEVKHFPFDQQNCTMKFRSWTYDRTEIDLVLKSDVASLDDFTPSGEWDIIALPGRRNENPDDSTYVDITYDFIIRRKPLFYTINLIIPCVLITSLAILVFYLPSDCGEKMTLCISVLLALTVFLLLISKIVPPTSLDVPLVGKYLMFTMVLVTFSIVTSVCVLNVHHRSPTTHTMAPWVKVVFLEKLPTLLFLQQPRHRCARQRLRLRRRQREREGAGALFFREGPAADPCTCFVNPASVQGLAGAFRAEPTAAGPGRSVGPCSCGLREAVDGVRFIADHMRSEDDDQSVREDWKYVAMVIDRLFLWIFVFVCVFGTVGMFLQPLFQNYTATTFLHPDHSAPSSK
smiles,measurement,setting,value
Clc1ccc(C2CC3CCC2CN3)cn1 (configuration not stated),Ki,[1],0.34 nM
same,EC50,Mus musculus,1.4 mg/kg
